Laboratory results taken from the supplement of paper PMC10627819.

What was measured:
[1] = system: S. aureus DSM 20231; experiment: Bliss interaction score (quartile over a dose matrix) (fitness difference); higher = more antagonism (negative = synergy)
How it was run: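 Each plate was normalised to the robust mean of its own no-drug wells, using OD595 at entry into stationary phase, with values capped at 1. This normalised growth is the fitness value. The Bliss score is the difference between observed and product-expected fitness, with single-drug fitness inferred from the combination data and quartiles taken over technical, biological and donor/recipient replicates.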

[2] = system: S. aureus DSM 20231; experiment: fitness (endpoint OD595 vs no drug) (fraction); higher = more growth
How it was run: (§1)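 Cultures at OD595 0.01 were dispensed into 384-well plates in TSB, LB Lennox or CY and incubated at 37 °C. Every 30 min for 14 h, OD595 was read and corrected by the first reading. Fitness is the optical density at entry into stationary phase relative to the robust mean of no-drug control wells, capped at 1.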

[3] = system: S. aureus Newman; experiment: as above
How it was run: as §1

[4] = system: S. pneumoniae D39V; experiment: as above
How it was run: as §1
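Wherever Bliss interaction score (quartile over a dose matrix) is given: first quartile when negative (synergy) and third quartile when positive (antagonism).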

CC1(C)S[C@@H]2[C@H](NC(=O)[C@H](N)c3ccc(O)cc3)C(=O)N2[C@H]1C(=O)O [Amoxicillin] + Cc1ccc(-c2cc(C(F)(F)F)nn2-c2ccc(S(N)(=O)=O)cc2)cc1 [Celecoxib]
Conditions | Bliss interaction score
[1] | 0.185

CC1(C)S[C@@H]2[C@H](NC(=O)[C@H](N)c3ccc(O)cc3)C(=O)N2[C@H]1C(=O)O [Amoxicillin] + N[C@@H]1CONC1=O [Cycloserine D]
fitness
Conditions | first compound 0.0625 µg/mL | first compound 0.125 µg/mL | first compound 0.25 µg/mL | first compound 0.5 µg/mL
[2], partner 0.375 µg/mL | 0.579 | 0.382 | 0.0345 | 0.0039
[2], partner 0.75 µg/mL | 0.562 | 0.368 | 0.0204 | 0.0079
[2], partner 1.5 µg/mL | 0.554 | – | 0.0264 | 0.0072
[3], partner 0.375 µg/mL | 0.889 | 0.875 | 0.811 | –
[3], partner 0.75 µg/mL | 0.879 | 0.91 | 0.821 | –
[3], partner 1.5 µg/mL | 0.861 | 0.851 | 0.8 | –

CC1(C)S[C@@H]2[C@H](NC(=O)[C@H](N)c3ccc(O)cc3)C(=O)N2[C@H]1C(=O)O [Amoxicillin] + O=C(O)[C@H]1/C(=C/CO)O[C@@H]2CC(=O)N21 [Clavulanic acid]
fitness, [4]
Conditions | first compound 0.0008 µg/mL | first compound 0.0015 µg/mL | first compound 0.003 µg/mL
partner 0.5 µg/mL | 0.913 | 0.945 | 0.914
partner 1 µg/mL | 0.886 | 0.87 | 0.852
partner 2 µg/mL | 0.812 | 0.819 | 0.713

fitness, one replicate
Conditions | partner 0.03125 µg/mL | partner 0.0625 µg/mL | partner 0.125 µg/mL | partner 0.5 µg/mL | partner 1 µg/mL | partner 2 µg/mL
[3], first compound 0.0625 µg/mL | 0.895 | 0.816 | 0.768 | – | – | –
[3], first compound 0.125 µg/mL | 0.831 | 0.809 | 0.639 | – | – | –
[3], first compound 0.25 µg/mL | 0.717 | 0.628 | 0.606 | – | – | –
[4], first compound 0.006 µg/mL | – | – | – | 0.391 | 0.315 | 0.242

CC1(C)S[C@@H]2[C@H](NC(=O)[C@H](N)c3ccc(O)cc3)C(=O)N2[C@H]1C(=O)O [Amoxicillin] + O=C(O)c1cc(-c2ccc(F)cc2F)ccc1O [Diflunisal]
Conditions | Bliss interaction score
[1] | 0.204

CO/N=C(\C(=O)N[C@@H]1C(=O)N2C(C(=O)[O-])=C(C[N+]3(C)CCCC3)CS[C@H]12)c1csc(N)n1 [Cefepime] + CC1(C)S[C@@H]2[C@H](NC(=O)Cc3ccccc3)C(=O)N2[C@H]1C(=O)O [Penicillin G]
fitness, [3]
Conditions | first compound 0.125 µg/mL | first compound 0.25 µg/mL | first compound 0.5 µg/mL
partner 0.0195 µg/mL | 0.868 | 0.801 | 0.712
partner 0.039 µg/mL | 0.895 | 0.811 | 0.695
partner 0.078 µg/mL | 0.871 | 0.773 | 0.704

CO/N=C(\C(=O)N[C@@H]1C(=O)N2C(C(=O)[O-])=C(C[N+]3(C)CCCC3)CS[C@H]12)c1csc(N)n1 [Cefepime] + CO[C@@]12[C@H](COC(N)=O)C3=C(C(=O)C(C)=C(N)C3=O)N1C[C@@H]1N[C@@H]12 [Mitomycin C]
Conditions | fitness
[2], first compound 0.125 µg/mL, partner 0.0156 µg/mL | 0.685
[2], first compound 0.125 µg/mL, partner 0.0312 µg/mL | 0.653
[2], first compound 0.125 µg/mL, partner 0.0625 µg/mL | 0.568
[2], first compound 0.25 µg/mL, partner 0.0156 µg/mL | 0.63
[2], first compound 0.25 µg/mL, partner 0.0312 µg/mL | 0.617
[2], first compound 0.25 µg/mL, partner 0.0625 µg/mL | 0.578
[2], first compound 0.5 µg/mL, partner 0.0156 µg/mL | 0.632
[2], first compound 0.5 µg/mL, partner 0.0312 µg/mL | 0.572
[2], first compound 0.5 µg/mL, partner 0.0625 µg/mL | 0.549
[3], first compound 0.125 µg/mL, partner 0.0156 µg/mL | 0.749
[3], first compound 0.125 µg/mL, partner 0.0312 µg/mL | 0.661
[3], first compound 0.125 µg/mL, partner 0.0625 µg/mL | 0.556
[3], first compound 0.25 µg/mL, partner 0.0156 µg/mL | 0.661
[3], first compound 0.25 µg/mL, partner 0.0312 µg/mL | 0.592
[3], first compound 0.25 µg/mL, partner 0.0625 µg/mL | 0.483
[3], first compound 0.5 µg/mL, partner 0.0156 µg/mL | 0.621
[3], first compound 0.5 µg/mL, partner 0.0312 µg/mL | 0.578
[3], first compound 0.5 µg/mL, partner 0.0625 µg/mL | 0.522
[4], first compound 0.007 µg/mL, partner 0.002 µg/mL | 0.88
[4], first compound 0.007 µg/mL, partner 0.004 µg/mL | 0.803
[4], first compound 0.007 µg/mL, partner 0.008 µg/mL | 0.68
[4], first compound 0.0078 µg/mL, partner 0.001075 µg/mL | 0.976
[4], first compound 0.0078 µg/mL, partner 0.00215 µg/mL | 0.924
[4], first compound 0.0078 µg/mL, partner 0.0043 µg/mL | 0.867
[4], first compound 0.014 µg/mL, partner 0.002 µg/mL | 0.859
[4], first compound 0.014 µg/mL, partner 0.004 µg/mL | 0.819
[4], first compound 0.014 µg/mL, partner 0.008 µg/mL | 0.669
[4], first compound 0.0155 µg/mL, partner 0.001075 µg/mL | 0.98
[4], first compound 0.0155 µg/mL, partner 0.00215 µg/mL | 0.931
[4], first compound 0.0155 µg/mL, partner 0.0043 µg/mL | 0.857
[4], first compound 0.028 µg/mL, partner 0.002 µg/mL | 0.716
[4], first compound 0.028 µg/mL, partner 0.004 µg/mL | 0.7
[4], first compound 0.028 µg/mL, partner 0.008 µg/mL | 0.628
[4], first compound 0.031 µg/mL, partner 0.001075 µg/mL | 0.708
[4], first compound 0.031 µg/mL, partner 0.00215 µg/mL | 0.647
[4], first compound 0.031 µg/mL, partner 0.0043 µg/mL | 0.63

CCCCCCCCCC(=O)N[C@@H](Cc1c[nH]c2ccccc12)C(=O)N[C@H](CC(N)=O)C(=O)N[C@@H](CC(=O)O)C(=O)N[C@@H]1C(=O)NCC(=O)N[C@@H](CCCN)C(=O)N[C@@H](CC(=O)O)C(=O)N[C@H](C)C(=O)N[C@@H](CC(=O)O)C(=O)NCC(=O)N[C@H](CO)C(=O)N[C@@H]([C@H](C)CC(=O)O)C(=O)N[C@@H](CC(=O)c2ccccc2N)C(=O)O[C@@H]1C [Daptomycin] + CC1(C)S[C@@H]2[C@H](NC(=O)Cc3ccccc3)C(=O)N2[C@H]1C(=O)O [Penicillin G]
fitness, [3]
Conditions | first compound 0.125 µg/mL | first compound 0.25 µg/mL | first compound 0.5 µg/mL
partner 0.0195 µg/mL | 0.926 | 0.958 | 0.925
partner 0.039 µg/mL | 0.939 | 0.942 | 0.972
partner 0.078 µg/mL | 0.961 | 0.957 | 0.915
